Assay results taken from ChEMBL document CHEMBL1158363, “Circular dichroism studies of type III collagen mimetic peptides with anti- or pro-aggregant activities on human platelets” (2009).
The source made the active and inactive calls. The rule behind the calls is not given here. Where a SMILES comes first, the peptide text is derived from it. [ ]: non-standard residue; d: D form. Hyp = O=C(O)[C@@H]1C[C@@H](O)CN1

System: Platelet
Assay: Inhibition of type III collagen-induced platelet aggregation in human platelet rich plasma at 1 mM
Format: functional

## NCCCC[C@H](NC(=O)[C@H](CCCCN)NC(=O)[C@@H]1C[C@@H](O)CN1C(=O)[C@@H]1C[C@@H](O)CN1)C(=O)N[C@@H](CCC(=O)O)C(=O)N1CCC[C@H]1C(=O)NCC(=O)NCC(=O)O (H-[Hyp][Hyp]KKEPGG-OH)
  inhibition: inactive

## C[C@H](NC(=O)[C@@H]1C[C@@H](O)CN1C(=O)[C@@H](N)CCCCN)C(=O)N[C@@H](CCC(=O)O)C(=O)N1C[C@H](O)C[C@H]1C(=O)N[C@@H](C)C(=O)N1CCC[C@H]1C(=O)N[C@@H](CCCCN)C(=O)O (H-K[Hyp]AE[Hyp]APK-OH)
  inhibition: inactive

## NCCCC[C@H](NC(=O)[C@@H]1CCCN1C(=O)CNC(=O)[C@@H]1C[C@@H](O)CN1C(=O)[C@H](CCC(=O)O)NC(=O)CNC(=O)[C@@H]1C[C@@H](O)CN1C(=O)[C@@H](N)CCCCN)C(=O)O (H-K[Hyp]GE[Hyp]GPK-OH)
  inhibition at 1000 µM: 86.1%

## C[C@H](NC(=O)[C@@H]1C[C@@H](O)CN1C(=O)[C@H](CCC(=O)O)NC(=O)CNC(=O)[C@@H]1C[C@@H](O)CN1C(=O)[C@@H](N)CCCCN)C(=O)N1CCC[C@H]1C(=O)N[C@@H](CCCCN)C(=O)O (H-K[Hyp]GE[Hyp]APK-OH)
  inhibition at 1000 µM: 72.1%
